Patent US20110065769A1, “Transdermal delivery of ionizable drugs” (priority 2009, published 2011)

Experiments:
[1] = Rat skin flux enhancement, side by side diffusion cell; format: in vitro ADME; details: for Skin flux enhancement by 3% PerRx (in words): 3% PerRx vs control at pH 7.4; for Skin flux, control: control formulation without PerRx; for Skin flux, control / Flux enhancement (S.F. Control + 3% PerRx)/(S.F. control) / Skin flux, control + 3% PerRx: hairless rat skin; for Skin flux, control / Skin flux, control + 3% PerRx: donor suspension pH 7.4, 37° C.; for Flux enhancement (S.F. Control + 3% PerRx)/(S.F. control): ratio of skin flux with 3% PerRx to control, pH 7.4; for Skin flux, control + 3% PerRx: with 3% PerRx enhancer
Description: […] The dorsal skin from a rat was excised and mounted on a side by side diffusion cell assembly with a contact area of 0.95 cm^2 and cell volume of 2.5 ml. The temperature of the diffusion cell was regulated at 37° C. The excised rat skin was clamped between the donor cell and the receiver with the dorsal stratum corneum facing the donor cell.
The model drug molecules were suspended in physiological phosphate buffer solution, of pH 7.4. The sampling volume of 1.0 ml was removed at the time point and the sampling volume was replaced with a fresh volume of the buffer solution. Skin flux of the drugs was measured in the absence or presence of the enhancer N,N-dimethylamino isobutyric acid propylene glycol mono laureate (also known as dodecanoic acid 2-(3-dimethylamethyl-propionyloxy)-propylester, or PerRx™).

[2] = Aqueous solubility with addition of 3% PerRx; format: physicochemical; details: 3% PerRx added to control formulation
Excerpt: So in the present work, it is believed that at pH 7.4 addition of the acetic acid functional group into polar head position will affect tremendously the physical chemical properties of molecules. […] See the results table.

SMILES: COc1ccc2c(c1)c(CC(=O)O)c(C)n2C(=O)c1ccc(Cl)cc1 [INDOM, indomethacin]
- Skin flux enhancement by 3% PerRx (in words) [1]: enhanced most
- Skin flux, control [1]: 0.5 μg/cm^2-hr
- Flux enhancement (S.F. Control + 3% PerRx)/(S.F. control) [1]: 14X
- Skin flux, control + 3% PerRx [1]: 7.0 μg/cm^2-hr

SMILES: O=[N+]([O-])O[C@H]1CO[C@H]2[C@@H]1OC[C@H]2O[N+](=O)[O-] [ISDN, Isosorbide di nitrate]
- Skin flux, control [1]: 20 μg/cm^2-hr
- Flux enhancement (S.F. Control + 3% PerRx)/(S.F. control) [1]: 2X
- Skin flux, control + 3% PerRx [1]: 40 μg/cm^2-hr

SMILES: O=[N+]([O-])O[C@@H]1CO[C@H]2[C@@H]1OC[C@@H]2O [ISMN, Isosorbide mono nitrate]
- Skin flux enhancement by 3% PerRx (in words) [1]: enhanced most
- Skin flux, control [1]: 40 μg/cm^2-hr
- Flux enhancement (S.F. Control + 3% PerRx)/(S.F. control) [1]: 18 X
- Skin flux, control + 3% PerRx [1]: 700 μg/cm^2-hr
- Effect of addition of 3% PerRx on aqueous solubility [2]: does not affect the aqueous solubility
